Data taken from US20030104487A1, “Neuropeptide receptor and uses thereof” (priority 2001, published 2003).

Tests used:
EBI2 [1] = target: T1, EBI2 (Homo sapiens, UniProt P32249); experiment: Response of EBI2 to CRF-family neuropeptides (test not specified); settings: general statement, no test named
EBI2 [2] = target: T1, EBI2; experiment: Functional assay measuring intracellular calcium mobilisation (FLIPR); assay type: cell-based; settings: EBI2-expressing cells compared to mock-transfected cells; FIG. 1
Method: 5×10^6 cells of a suitable host cell line, chosen to express a low number of endogenous receptors (e.g. HEK293 or CHO-K1) and engineered to stably express certain Gα proteins (e.g. mouse Gα15 (Wilkie, T. M. et al (1991) Proc. Natl. Acad. Sci. 88, 10049-10053), a chimeric Gqi5/Gqo5 α-subunit, or human Gα16 (Amatruda, TT 3rd et al (1991) Proc. Natl. Acad. Sci. 88, 5587-5591)), were transiently transfected with 7.5 μg of cDNA encoding EBI2 in a suitable mammalian cell expression vector, or vector alone, using Lipofectamine Plus® reagent (Gibco BRL) as per the manufacturer's protocol. […]
Fluorescence Imaging Plate Reader (FLIPR®) technology was employed as a means to detect activation of EBI2 by various potential GPCR agonists.
Cells were transfected as described in Example 3. […] The FLIPR® processing involved reading the fluorescence for all samples for 2 minutes; during this time the fluorescence baseline was determined […]. The desired amount of compounds (i.e. potential GPCR agonists) was then automatically transferred to the wells and the fluorescence was continuously monitored for the remainder of the time. […]
Compounds capable of acting as agonists for the receptor were identified by them causing a transient rise in fluorescence, and therefore in intracellular calcium, in the cells.

EBI2 [3] = target: T1, EBI2; experiment: β-Arrestin assay (GFP-β-arrestin clustering/internalisation); assay type: cell-based; set-up: expressed in transfected cells; host or cells: HEK 293; settings: HEK 293 cells transiently expressing EBI2 and GFP-β-arrestin; ligand ~500 nM, 30 minutes; confocal microscopy, FIG. 2
From the text: General principle of the assay: Agonist binding to the GPCR activates G-proteins and ultimately results in second messenger cascades to elicit a physiological response. In most cases receptors occupied by agonists undergo rapid phosphorylation by GPCR Kinases (GRKs). This in turn allows β-arrestin to bind to the GPCR preventing any further interaction between the GPCR and G-protein. Internalisation of the GPCR via clathrin coated pits follows as a result of arrestin-clathrin interactions (Krupnick, J. G. and Benovic, J. L. (1998) Annual Review of Pharmacological Toxicology, 38, 289-319). By employing fusion constructs of green fluorescent protein (GFP)-β arrestin, this receptor desensitisation can be visualised using confocal microscopy. In the absence of receptor activation in a transfected cell line, fluorescence associated with the β-arrestin-GFP is evenly distributed throughout the cytoplasm. Upon receptor activation by an agonist, cytosolic β-arrestin-GFP translocates to the cell surface reflecting the interaction with the activated receptor (Evans et al. 2001). […]
The receptor EBI2 and GFP-β-arrestin mammalian expression constructs were transiently transfected in to HEK 293 cells. […] The cells were then analysed using both confocal microscopy and the Cellomics ArrayScanII methodologies in order to identify internalisation of the ligand receptor GFP-β-arrestin complex. […]

T1 sequence (P32249 whole entry): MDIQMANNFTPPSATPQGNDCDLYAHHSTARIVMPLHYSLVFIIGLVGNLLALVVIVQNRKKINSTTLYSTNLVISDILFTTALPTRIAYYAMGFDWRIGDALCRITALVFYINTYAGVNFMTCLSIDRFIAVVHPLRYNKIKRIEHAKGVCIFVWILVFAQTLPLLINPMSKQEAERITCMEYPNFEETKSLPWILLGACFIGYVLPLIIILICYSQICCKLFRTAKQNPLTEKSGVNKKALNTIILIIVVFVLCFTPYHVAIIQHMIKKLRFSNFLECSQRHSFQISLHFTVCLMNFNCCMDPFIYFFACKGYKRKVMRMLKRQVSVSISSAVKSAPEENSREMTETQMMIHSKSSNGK

Row | Compound | receptor responds to the peptide (EBI2 [1]) | fluorescence change over time (transient rise in intracellular calcium) (EBI2 [2]) | clustering of GFP-β-arrestin complex on the cell surface (EBI2 [3])
1 | CC[C@H](C)[C@H](NC(=O)[C@@H](NC(=O)[C@H](CC(=O)O)NC(=O)[C@H](CC(C)C)NC(=O)[C@H](CC(C)C)NC(=O)[C@H](CC(C)C)NC(=O)[C@H](CCCNC(=N)N)NC(=O)[C@H](CC(N)=O)NC(=O)[C@H](CC(N)=O)NC(=O)[C@H](C)NC(=O)[C@H](C)NC(=O)[C@H](CCC(N)=O)NC(=O)[C@H](CCC(N)=O)NC(=O)[C@H](CCCCN)NC(=O)[C@H](CCC(=O)O)NC(=O)[C@H](CCCCN)NC(=O)[C@H](CCC(=O)O)NC(=O)[C@H](CCC(N)=O)NC(=O)[C@H](CCCCN)NC(=O)[C@H](CCC(=O)O)NC(=O)[C@@H](NC(=O)[C@H](CCC(=O)O)NC(=O)[C@@H](NC(=O)[C@H](CCSC)NC(=O)[C@H](CCCCN)NC(=O)[C@H](CCCNC(=N)N)NC(=O)[C@H](CC(C)C)NC(=O)[C@H](CC(C)C)NC(=O)[C@H](CCC(=O)O)NC(=O)[C@H](CC(C)C)NC(=O)[C@H](CO)NC(=O)[C@H](CC(C)C)NC(=O)[C@H](CC(=O)O)NC(=O)[C@@H](NC(=O)[C@H](CO)NC(=O)[C@@H](NC(=O)[C@@H]1CCCN1C(=O)[C@@H]1CCCN1C(=O)CNC(=O)[C@@H]1CCC(=O)N1)[C@@H](C)CC)[C@@H](C)CC)[C@@H](C)CC)[C@@H](C)CC)[C@@H](C)O)C(N)=O [sauvagine] | responds | – | –
2 | urotensin I | responds | response of EBI2-expressing cells to urotensin I | Clustering of the fluorescent GFP-β-arrestin complex is clearly observed
